Reference: US8680113B2, “BMI-1 protein expression modulators” (PTC Therapeutics, Inc., priority 2008, dated 2014)
One block for each molecule: values may come before it.

Assays:
Bmi-1 [1] = assay: Cell Model Assay: Bmi-1 expression in KG1; type: cell-based; conditions: KG1 (acute myelogenous leukemia)
Experimental: (§1) Using assay conditions known to those skilled in the art, the ability of the compounds described herein to reduce Bmi-1 expression in HT1080 (fibrosarcoma), U87-MG (glioblastoma), T98G (glioblastoma), K562 (chronic myelogenous leukemia) and KG1 (acute myelogenous leukemia) cell lines was tested (at test compound concentrations calculated from the ELISA assay data shown in Example 1) compared to puromycin as a control to provide the EC50 values shown in Table 2. The term “ND” means that data was not determined.

Bmi-1 [2] = assay: Cell Model Assay: Bmi-1 expression in K562; type: cell-based; conditions: K562 (chronic myelogenous leukemia)
Experimental: as §1

Bmi-1 [3] = assay: Sandwich ELISA Assay (Bmi-1 ELISA in HT-1080 cells); type: cell-based, human
Outline: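 Lysate Bmi-1 was quantified against a recombinant GST-Bmi-1 standard (0-8000 pg/mL) by sandwich ELISA read at OD450 with OD570 reference. The ELISA used mouse monoclonal capture, rabbit anti-Bmi-1, HRP anti-rabbit IgG and TMB. Before lysis, HT-1080 cells seeded at 8000/well were exposed to compounds for 40-48 h at 37°C with 0.5% final DMSO.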

Bmi-1 [4] = assay: Cell Model Assay: Bmi-1 expression in HT1080; type: cell-based, human; conditions: HT1080 (fibrosarcoma)
Experimental: as §1

MM cell line = assay: Multiple Myeloma Assay; type: cell-based; conditions: 72 hrs in culture
MCL-Jeko = assay: Mantle Cell Lymphoma Assay: cytotoxicity, Jeko; type: cell-based; conditions: 72 hrs in culture
Text: (§2) MCL cell lines Jeko, Mino, and Rec-1 were provided by American Type Culture Collection: The Bioresource Center (Manassas, Va.). […] Carlsbad, Calif.) in T-75 culture flasks. Cell concentration was maintained between 2 to 3×10^5 cells/mL. Early passage cells (passages 2-4) were used for all experiments. Ficoll-Histopaque density sedimentation (Sigma Aldrich) was used for separation of debris and purification of cell lines prior to experiments. […] The cytotoxic effect of test compounds on the MCL-cell lines was assessed by measuring cell concentration and cell viability using a Beckman Coulter Vi-Cell Counter. Controls and treated cells were harvested and counted at day 3.

MCL-Rec1 = assay: Mantle Cell Lymphoma Assay: cytotoxicity, Rec-1; type: cell-based; conditions: 72 hrs in culture
Text: as §2

MCL-Mino = assay: Mantle Cell Lymphoma Assay: cytotoxicity, Mino; type: cell-based; conditions: 72 hrs in culture
Text: as §2

SMILES: COc1cccc(Nc2nccc(-c3cnc4ccccn34)n2)c1 [Cpd 28, 4-(imidazo[1,2-a]pyridine-3-yl)-N-(3-methoxyphenyl)pyrimidin-2-amine]
EC50 (Bmi-1 [1]): 0.048 µM
EC50 (Bmi-1 [2]): 0.261 µM
IC50 (Bmi-1 [3]): < 0.5 µM

SMILES: Cc1nc2ccc(Cl)cn2c1-c1csc(Nc2ccc3c(c2)OCO3)n1 [Cpd 30, N-(benzo[d][1,3]dioxol-5-yl)-4-(6-chloro-2-methylimidazo[1,2-a]pyridin-3-yl)thiazol-2-amine]
EC50 (Bmi-1 [4]): 0.004 µM
EC50 (Bmi-1 [1]): 0.048 µM
EC50 (Bmi-1 [2]): < 0.004 µM
IC50 (Bmi-1 [3]): < 0.5 µM

SMILES: Cc1nc2ccc(F)cn2c1-c1csc(Nc2ccc3c(c2)OCO3)n1 [Cpd 158, N-(1,3-benzodioxol-5-yl)-4-(6-fluoro-2-methylimidazo[1,2-a]pyridin-3-yl)-1,3-thiazol-2-amine]
IC50 (Bmi-1 [3]): < 0.5 µM

SMILES: Cc1ccc(Nc2nc(-c3c(C)nc4ccccn34)cs2)cc1 [Cpd 191, 4-(2-methylimidazo[1,2-a]pyridin-3-yl)-N-(4-methylphenyl)-1,3-thiazol-2-amine]
IC50 (Bmi-1 [3]): < 0.5 µM

SMILES: Cc1ccc(N(C)c2nccc(-c3c(C)nc4ncccn34)n2)cc1 [Cpd 170, N-methyl-4-(2-methylimidazo[1,2-a]pyrimidin-3-yl)-N-(4-methylphenyl)pyrimidin-2-amine]
IC50 (Bmi-1 [3]): < 0.5 µM

SMILES: COc1cc(F)c(Nc2nc(-c3c(C)nc4ncccn34)cs2)c(F)c1 [Cpd 20, N-(2,6-difluoro-4-methoxyphenyl)-4-(2-methylimidazo[1,2-a]pyrimidin-3-yl)thiazol-2-amine]
IC50 (Bmi-1 [3]): 1 to 3 µM

SMILES: COc1ccc(Nc2nc(-c3c(C)nc4ncccn34)cs2)cc1F [Cpd 45, N-(3-fluoro-4-methoxyphenyl)-4-(2-methylimidazo[1,2-a]pyrimidin-3-yl)-1,3-thiazol-2-amine]
IC50 (Bmi-1 [3]): < 0.5 µM

SMILES: CCc1nc2ncccn2c1-c1csc(Nc2ccc(OC)c(F)c2)n1 [Cpd 152, 4-(2-ethylimidazo[1,2-a]pyrimidin-3-yl)-N-(3-fluoro-4-methoxyphenyl)-1,3-thiazol-2-amine]
IC50 (Bmi-1 [3]): < 0.5 µM

SMILES: CCCc1nc2ccccn2c1-c1csc(Nc2ccc(OCC)cc2)n1 [Cpd 173, N-(4-ethoxyphenyl)-4-(2-propylimidazo[1,2-a]pyridin-3-yl)-1,3-thiazol-2-amine]
IC50 (Bmi-1 [3]): < 0.5 µM

SMILES: COc1ccc(Nc2nc(-c3c(C)nc4c(Br)cccn34)cs2)cc1 [Cpd 228, 4-(8-bromo-2-methylimidazo[1,2-a]pyridin-3-yl)-N-(4-methoxyphenyl)-1,3-thiazol-2-amine]
IC50 (Bmi-1 [3]): < 0.5 µM

SMILES: COc1ccc(Nc2nc(-c3c(C)nc4ccccn34)cs2)cc1OC [Cpd 202, N-(3,4-dimethoxyphenyl)-4-(2-methylimidazo[1,2-a]pyridin-3-yl)-1,3-thiazol-2-amine]
IC50 (Bmi-1 [3]): < 0.5 µM

SMILES: Cc1ccn2c(-c3csc(Nc4ccc(Cl)cc4)n3)c(C)nc2c1 [Cpd 65, N-(4-chlorophenyl)-4-(2,7-dimethylimidazo[1,2-a]pyridin-3-yl)-1,3-thiazol-2-amine]
IC50 (Bmi-1 [3]): < 0.5 µM

SMILES: Cc1nc2ccc(F)cn2c1-c1csc(Nc2ccc(I)cc2)n1 [Cpd 156, 4-(6-fluoro-2-methylimidazo[1,2-a]pyridine-3-yl)-N-(4-iodophenyl)-1,3-thiazol-2-amine]
IC50 (Bmi-1 [3]): < 0.5 µM

SMILES: Cc1nc2cc(Cl)ccn2c1-c1csc(Nc2ccc(Cl)cc2)n1 [Cpd 240, 4-(7-chloro-2-methylimidazo[1,2-a]pyridin-3-yl)-N-(4-chlorophenyl)-1,3-thiazol-2-amine]
IC50 (Bmi-1 [3]): < 0.5 µM

SMILES: COc1cc(Br)c(Nc2nccc(-c3cnc4ncccn34)n2)c(Br)c1 [Cpd 257, N-(2,6-dibromo-4-methoxyphenyl)-4-(imidazo[1,2-a]pyrimidin-3-yl)pyrimidin-2-amine]
IC50 (Bmi-1 [3]): < 0.5 µM

Further lines, with some results ahead:

EC50 (Bmi-1 [1]): 0.304 µM
EC50 (Bmi-1 [2]): 0.005 µM
IC50 (Bmi-1 [3]): < 0.5 µM
SMILES: Cc1nc2ccc(Cl)cn2c1-c1csc(Nc2ccc(I)cc2)n1 [Cpd 29, 4-(6-chloro-2-methylimidazo[1,2-a]pyridin-3-yl)-N-(4-iodophenyl)thiazol-2-amine]

EC50 (Bmi-1 [1]): > 3 µM
EC50 (Bmi-1 [2]): 0.1 µM
IC50 (Bmi-1 [3]): < 0.5 µM
SMILES: Cc1cc(Br)c(Nc2nc(-c3cnc4ccc(Cl)cn34)cs2)c(Br)c1 [Cpd 25, 4-(6-chloroimidazo[1,2-a]pyridine-3-yl)-N-(2,6-dibromo-4-methylphenyl)thiazol-2-amine]

IC50 (Bmi-1 [3]): < 0.5 µM
SMILES: COCCOc1cc(Br)c(Nc2nc(-c3cnc4ccc(Cl)cn34)cs2)c(Br)c1 [Cpd 134, 4-(6-chloroimidazo[1,2-a]pyridin-3-yl)-N-[2,6-dibromo-4-(2-methoxyethoxy)phenyl]-1,3-thiazol-2-amine]
Cell Concentration, MM cell line (MM cell line; dose 0.004 μM): 1.36 ± 0.01 ×10^6
viability at 0.004 µM (MM cell line; dose 0.004 μM): 91.17 ± 0.43%
Cell Concentration, MM cell line (MM cell line; dose 0.037 μM): 1.33 ± 0.01 ×10^6
viability at 0.037 µM (MM cell line; dose 0.037 μM): 90.27 ± 0.1%
Cell Concentration, MM cell line (MM cell line; dose 0.11 μM): 1.28 ± 0.01 ×10^6
viability at 0.11 µM (MM cell line; dose 0.11 μM): 87.93 ± 0.5%
Cell Concentration, MM cell line (MM cell line; dose 0.33 μM): 1.18 ± 0.04 ×10^6
viability at 0.33 µM (MM cell line; dose 0.33 μM): 86.1 ± 0.31%
Cell Concentration, MM cell line (MM cell line; dose 1 μM): 1.06 ± 0.01 ×10^6
viability at 1 µM (MM cell line; dose 1 μM): 83.47 ± 0.46%
Cell Concentration, MM cell line (MM cell line; dose 3 μM): 0.75 ± 0.03 ×10^6
viability at 3 µM (MM cell line; dose 3 μM): 76.5 ± 1.48%
Cell Concentration, MCL-Jeko (MCL-Jeko; dose 0.004 μM): 2.11 ± 0.04 ×10^6
viability at 0.004 µM (MCL-Jeko; dose 0.004 μM, read-out: Cell Viability, MCL-Jeko): 94.1 ± 0.23%
Cell Concentration, MCL-Jeko (MCL-Jeko; dose 0.037 μM): 2.11 ± 0.03 ×10^6
viability at 0.037 µM (MCL-Jeko; dose 0.037 μM, read-out: Cell Viability, MCL-Jeko): 94.37 ± 0.18%
Cell Concentration, MCL-Jeko (MCL-Jeko; dose 0.11 μM): 1.97 ± 0.11 ×10^6
viability at 0.11 µM (MCL-Jeko; dose 0.11 μM, read-out: Cell Viability, MCL-Jeko): 93.77 ± 0.15%
Cell Concentration, MCL-Jeko (MCL-Jeko; dose 0.33 μM): 1.95 ± 0.02 ×10^6
viability at 0.33 µM (MCL-Jeko; dose 0.33 μM, read-out: Cell Viability, MCL-Jeko): 93.67 ± 0.13%
Cell Concentration, MCL-Jeko (MCL-Jeko; dose 1 μM): 1.82 ± 0.05 ×10^6
viability at 1 µM (MCL-Jeko; dose 1 μM, read-out: Cell Viability, MCL-Jeko): 93.87 ± 0.06%
Cell Concentration, MCL-Jeko (MCL-Jeko; dose 3 μM): 1.81 ± 0.02 ×10^6
viability at 3 µM (MCL-Jeko; dose 3 μM, read-out: Cell Viability, MCL-Jeko): 92.4 ± 0.22%
viability at 0.004 µM (MCL-Rec1; Homo sapiens, Rec1, dose 0.004 μM, read-out: Cell Viability, MCL-Rec1): 89.43 ± 0.18%
viability at 0.037 µM (MCL-Rec1; Homo sapiens, Rec1, dose 0.037 μM, read-out: Cell Viability, MCL-Rec1): 88.9 ± 1%
viability at 0.11 µM (MCL-Rec1; Homo sapiens, Rec1, dose 0.11 μM, read-out: Cell Viability, MCL-Rec1): 90.2 ± 0.63%
viability at 0.33 µM (MCL-Rec1; Homo sapiens, Rec1, dose 0.33 μM, read-out: Cell Viability, MCL-Rec1): 88.63 ± 0.24%
viability at 1 µM (MCL-Rec1; Homo sapiens, Rec1, dose 1 μM, read-out: Cell Viability, MCL-Rec1): 88.43 ± 0.48%
viability at 3 µM (MCL-Rec1; Homo sapiens, Rec1, dose 3 μM, read-out: Cell Viability, MCL-Rec1): 86.67 ± 0.84%
Cell Concentration, MCL-Rec1 (MCL-Rec1; dose 0.004 μM): 0.84 ± 0.02 ×10^6
Cell Concentration, MCL-Rec1 (MCL-Rec1; dose 0.037 μM): 0.86 ± 0.02 ×10^6
Cell Concentration, MCL-Rec1 (MCL-Rec1; dose 0.11 μM): 0.90 ± 0.01 ×10^6
Cell Concentration, MCL-Rec1 (MCL-Rec1; dose 0.33 μM): 0.85 ± 0.02 ×10^6
Cell Concentration, MCL-Rec1 (MCL-Rec1; dose 1 μM): 0.78 ± 0.03 ×10^6
Cell Concentration, MCL-Rec1 (MCL-Rec1; dose 3 μM): 0.73 ± 0.02 ×10^6
viability at 0.004 µM (MCL-Mino; Homo sapiens, MINO, dose 0.004 μM, read-out: Cell Viability, MCL-Mino): 84.8 ± 0.7%
viability at 0.037 µM (MCL-Mino; Homo sapiens, MINO, dose 0.037 μM, read-out: Cell Viability, MCL-Mino): 86.2 ± 0.8%
viability at 0.11 µM (MCL-Mino; Homo sapiens, MINO, dose 0.11 μM, read-out: Cell Viability, MCL-Mino): 84.6 ± 0.5%
viability at 0.33 µM (MCL-Mino; Homo sapiens, MINO, dose 0.33 μM, read-out: Cell Viability, MCL-Mino): 83.8 ± 0.2%
viability at 1 µM (MCL-Mino; Homo sapiens, MINO, dose 1 μM, read-out: Cell Viability, MCL-Mino): 81.4 ± 0.8%
viability at 3 µM (MCL-Mino; Homo sapiens, MINO, dose 3 μM, read-out: Cell Viability, MCL-Mino): 79 ± 0.8%
Cell Concentration, MCL-Mino (MCL-Mino; dose 0.004 μM): 0.63 ± 0.01 ×10^6
Cell Concentration, MCL-Mino (MCL-Mino; dose 0.037 μM): 0.65 ± 0.01 ×10^6
Cell Concentration, MCL-Mino (MCL-Mino; dose 0.11 μM): 0.65 ± 0.01 ×10^6
Cell Concentration, MCL-Mino (MCL-Mino; dose 0.33 μM): 0.59 ± 0.01 ×10^6
Cell Concentration, MCL-Mino (MCL-Mino; dose 1 μM): 0.56 ± 0.02 ×10^6
Cell Concentration, MCL-Mino (MCL-Mino; dose 3 μM): 0.47 ± 0.02 ×10^6

IC50 (Bmi-1 [3]): < 0.5 µM
SMILES: Cc1nc2ccc(Cl)cn2c1-c1csc(Nc2ccc(Br)cc2Cl)n1 [Cpd 132, N-(4-bromo-2-chlorophenyl)-4-(6-chloro-2-methylimidazo[1,2-a]pyridin-3-yl)-1,3-thiazol-2-amine]

EC50 (Bmi-1 [1]): 0.317 µM
EC50 (Bmi-1 [2]): 0.234 µM
IC50 (Bmi-1 [3]): 1 to 3 µM
SMILES: COc1cc(Cl)c(Nc2nc(-c3cnc4ccc(Cl)cn34)cs2)c(Cl)c1 [Cpd 26, 4-(6-chloroimidazo[1,2-a]pyridine-3-yl)-N-(2,6-dichloro-4-methoxyphenyl)thiazol-2-amine]

IC50 (Bmi-1 [3]): < 0.5 µM
SMILES: Cc1cc(Br)ccc1Nc1nc(-c2c(C)nc3ccc(Cl)cn23)cs1 [Cpd 216, N-(4-bromo-2-methylphenyl)-4-(6-chloro-2-methylimidazo[1,2-a]pyridin-3-yl)-1,3-thiazol-2-amine]
